The values that follow come from patent US20120088746A1, “AMIDE DERIVATIVES AS ION-CHANNEL LIGANDS AND PHARMACEUTICAL COMPOSITIONS AND METHODS OF USING THE SAME” (PFIZER INC., priority 2006, published 2012).

Molecules are shown by their SMILES.

This assay deals with human VR1 (Homo sapiens, UniProt Q8NER1). Put plainly: Acid stimulation assay (acid-induced intracellular calcium change, FDSS 6000). The class given is cell-based. The settings on record: final assay buffer pH5.8, 15 min pre-incubation, read-out: IC50 (nM) Low pH. An excerpt:
VR1 antagonistic activity can be determined by the Ca^2+ imaging assay using human VR1 highly expressing cells. The cells that highly express human VR1 receptors are obtainable from several different conventional methods. The one standard method is cloning from human Dorsal Root Ganglion (DRG) or kidney according to the methods such as described in the journal article; Nature, 389, pp 816-824, 1997. Alternatively VR1 receptors highly expressing human keratinocytes are also known and published in the journal article (Biochemical and Biophysical Research Communications, 291, pp 124-129, 2002). […] Furthermore, the method to up regulate human VR1 gene, which is usually a silent gene or don't produce detectable level of VR1 receptors, is also available to obtain propriety cells. Such genetic modification method was described in detail; Nat. Biotechnol., 19, pp 440-445, 2001.
The cells that express human VR1 receptors were maintained in culture flask at 37° C. in an environment containing 5% CO2 until use in the assay. The intracellular Ca^2+ imaging assay to determine VR1 antagonistic activities were done by following procedures.
The culture medium was removed from the flask and fura-2/AM fluorescent calcium indicator was added to the flask at a concentration of 5 μM in the medium. The flask was placed in CO2 incubator and incubated for 1 hour. Then the cells expressing the human VR1 receptors were detached from the flask follow by washing with phosphate buffer saline, PBS(−) and re-suspended in assay buffer. The 80 tit of aliquot of cell suspension (3.75×10^5 cells/ml) was added to the assay plate and the cells were spun down by centrifuge (950 rpm, 20° C., 3 minutes).
The Acid-induced changes in the intracellular calcium concentration were monitored using FDSS 6000 (Hamamatsu Photonics, Japan), a fluorometric imaging system. The cell suspension in resting buffer (HBSS supplemented with 10 mM HEPES, pH 7.4) were pre-incubated with varying concentrations of the test compounds or resting buffer (buffer control) for 15 minutes at room temperature under the dark condition. The cells were automatically added the stimulating solution (HBSS supplemented with MES, final assay buffer pH5.8) by the FDSS 6000.
The Acid-induced changes in the intracellular calcium concentration were monitored using FDSS 6000 (Hamamatsu Photonics, Japan), a fluorometric imaging system. The cell suspension in resting buffer (HBSS supplemented with 10 mM HEPES, pH 7.4) was pre-incubated with varying concentrations of the test compounds or resting buffer (buffer control) for 15 minutes at room temperature under dark conditions. The cells were automatically added to the stimulating solution (HBSS supplemented with MES, final assay buffer pH5.8) by the FDSS 6000.

Chain of human VR1 (Q8NER1 whole entry): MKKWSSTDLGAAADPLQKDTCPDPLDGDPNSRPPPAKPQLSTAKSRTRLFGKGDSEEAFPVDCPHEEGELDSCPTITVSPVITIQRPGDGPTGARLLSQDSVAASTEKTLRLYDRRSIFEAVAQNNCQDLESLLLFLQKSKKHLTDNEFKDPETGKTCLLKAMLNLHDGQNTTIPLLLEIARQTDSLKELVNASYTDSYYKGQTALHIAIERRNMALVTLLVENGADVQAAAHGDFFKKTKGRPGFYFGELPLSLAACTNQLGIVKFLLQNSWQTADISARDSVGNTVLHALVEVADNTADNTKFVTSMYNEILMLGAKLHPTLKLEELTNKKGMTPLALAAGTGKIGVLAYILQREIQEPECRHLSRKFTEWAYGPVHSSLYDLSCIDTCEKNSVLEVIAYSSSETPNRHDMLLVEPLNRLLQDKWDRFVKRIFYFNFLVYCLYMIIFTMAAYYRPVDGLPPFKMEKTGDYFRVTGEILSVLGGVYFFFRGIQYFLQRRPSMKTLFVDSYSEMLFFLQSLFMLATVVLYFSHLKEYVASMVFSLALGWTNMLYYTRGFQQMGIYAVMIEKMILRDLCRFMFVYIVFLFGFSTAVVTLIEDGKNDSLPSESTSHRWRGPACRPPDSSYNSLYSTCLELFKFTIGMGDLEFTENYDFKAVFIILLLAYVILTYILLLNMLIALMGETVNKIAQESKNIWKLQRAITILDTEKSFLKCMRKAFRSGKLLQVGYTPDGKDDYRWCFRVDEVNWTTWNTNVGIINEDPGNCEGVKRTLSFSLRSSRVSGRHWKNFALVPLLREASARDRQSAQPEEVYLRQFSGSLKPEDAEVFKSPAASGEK

On to `Cc1cc([C@@H](C)NC(=O)c2ccc3nc(C(F)(F)F)cc(N4CC[C@@H](O)C4)c3c2)c(F)cc1NS(C)(=O)=O` [Example 90, 4-((R)-3-HYDROXYPYRROLIDIN-1-YL)-2-TRIFLUOROMETHYLQUINOLINE-6-CARBOXYLIC ACID [(R)-1-(2-FLUORO-4-METHANESULFONYLAMINO-5-METHYLPHENYL)ETHYL]AMIDE], for which the IC50 (commonly the concentration at which inhibition is half-maximal) came to 112 nM. For `Cc1cc([C@@H](C)NC(=O)c2ccc3nc(C(F)(F)F)cc(N4CC[C@H](O)C4)c3c2)c(F)cc1NS(C)(=O)=O` [Example 91, 4-((S)-3-HYDROXY-PYRROLIDIN-1-YL)-2-TRIFLUOROMETHYLQUINOLINE-6-CARBOXYLIC ACID [(R)-1-(2-FLUORO-4-METHANESULFONYLAMINO-5-METHYLPHENYL)ETHYL]AMIDE] the value was 366 nM; for `Cc1cc([C@@H](C)NC(=O)c2ccc3nc(C(F)(F)F)cc(N4CC(F)(F)C4)c3c2)c(F)cc1NS(C)(=O)=O` [Example 92, 4-(3,3-DIFLUOROAZETIDIN-1-YL)-2-TRIFLUOROMETHYLQUINOLINE-6-CARBOXYLIC ACID [(R)-1-(2-FLUORO-4-METHANESULFONYLAMINO-5-METHYLPHENYL)-ETHYL]AMIDE], 24 nM. Next, `Cc1cc([C@@H](C)NC(=O)c2ccc3nc(C(F)(F)F)cc(N4CCC[C@@H]4CO)c3c2)c(F)cc1NS(C)(=O)=O` [Example 93, 4-((R)-2-HYDROXYMETHYLPYRROLIDIN-1-YL)-2-TRIFLUOROMETHYLQUINOLINE-6-CARBOXYLIC ACID [(R)-1-(2-FLUORO-4-METHANESULFONYLAMINO-5-METHYLPHENYL)ETHYL]AMIDE]: 370 nM. With `Cc1cc([C@@H](C)NC(=O)c2ccc3nc(C(F)(F)F)cc(OC4CCOCC4)c3c2)c(F)cc1NS(C)(=O)=O` [Example 94, 4-(TETRAHYDRO-PYRAN-4-YLOXY)-2-TRIFLUOROMETHYL-QUINOLINE-6CARBOXYLIC ACID [(R)-1-(2-FLUORO-4-METHANESULFONYLAMINO-5-METHYL-PHENYL)-ETHYL]-AMIDE], the IC50 was found to be 35 nM. Take `CCOC(=O)N1CCN(c2nc(C(F)(F)F)nc3ccc(C(=O)N[C@H](C)c4cc(C)c(NS(C)(=O)=O)cc4F)cc23)CC1` [Example 96, 4-{6-[(R)-1-(2-FLUORO-4-METHANESULFONYLAMINO-5-METHYL-PHENYL)-ETHYLCARBAMOYL]-2-TRIFLUOROMETHYL-QUINAZOLIN-4-YL}-PIPERAZINE-1-CARBOXYLIC ACID ETHYL ESTER]: the 50% inhibitory concentration (IC50) was 41 nM.

In the case of `Cc1cc([C@@H](C)NC(=O)c2ccc3nc(C(F)(F)F)cc(NC4CCCCC4)c3c2)c(F)cc1NS(C)(=O)=O` [Example 97, 4-CYCLOHEXYLAMINO-2-TRIFLUOROMETHYLQUINOLINE-6-CARBOXYLIC ACID [(R)-1-(2-FLUORO-4-METHANESULFONYLAMINO-5-METHYLPHENYL)ETHYL]AMIDE], the concentration for half-maximal inhibition (IC50) worked out at 41 nM.

On to `Cc1cc([C@@H](C)NC(=O)c2ccc3nc(C(F)(F)F)cc(N4CCC(CO)CC4)c3c2)c(F)cc1NS(C)(=O)=O` [Example 99, 4-(4-HYDROXYMETHYL-PIPERIDIN-1-YL)-2-TRIFLUOROMETHYL-QUINOLINE-6-CARBOXYLIC ACID [(R)-1-(2-FLUORO-4-METHANESULFONYLAMINO-5-METHYL-PHENYL)-ETHYL]-AMIDE], for which the half-inhibitory concentration (IC50) amounted to 630 nM.

With `Cc1cc([C@@H](C)NC(=O)c2ccc3cc(C(C)(O)C(F)(F)F)ccc3c2)c(F)cc1NS(C)(=O)=O` (stereo partly shown) [Example 101], the IC50 amounted to 41 nM. For `Cc1cc([C@@H](C)NC(=O)c2ccc3cc(-n4cccn4)ccc3c2)c(F)cc1NS(C)(=O)=O` [Example 105, 6-PYRAZOL-1-YL-NAPHTHALENE-2-CARBOXYLIC ACID [(R)-1-(2-FLUORO-4-METHANESULFONYLAMINO-5-METHYL-PHENYL)-ETHYL]-AMIDE], the half-inhibitory concentration (IC50) stood at 147 nM. For `Cc1cc([C@@H](C)NC(=O)c2ccc3nc(C(F)(F)F)nc(N4CCC(Cc5ccccc5)CC4)c3c2)c(F)cc1NS(C)(=O)=O` [Example 106, 4-(4-BENZYL-PIPERIDIN-1-YL)-2-TRIFLUOROMETHYL-QUINAZOLINE-6-CARBOXYLIC ACID [(R)-1-(2-FLUORO-4-METHANESULFONYLAMINO-5-METHYL-PHENYL)-ETHYL]-AMIDE], the 50% inhibitory concentration (IC50) turned out to be 6 nM.

Take `COC1CCN(c2ccc3cc(C(=O)N[C@H](C)c4cc(C)c(NS(C)(=O)=O)cc4F)ccc3n2)CC1` [Example 107]: the IC50 was determined as 337 nM. With `Cc1cc([C@@H](C)NC(=O)c2ccc3nc(C4(C)CC4)ccc3c2)c(F)cc1NS(C)(=O)=O` [Example 108, N-((1R)-1-{2-FLUORO-5-METHYL-4-[(METHYLSULFONYL)AMINO]PHENYL}ETHYL)-2-(1-METHYLCYCLOPROPYL)QUINOLINE-6-CARBOXAMIDE], the IC50 is 5 nM. Next, `Cc1cc([C@@H](C)NC(=O)c2ccc3nc(N4CCC(F)(F)CC4)ccc3c2)c(F)cc1NS(C)(=O)=O` [Example 110, (R)-2-(4,4-DIFLUOROPIPERIDIN-1-YL)-N-(1-(2-FLUORO-5-METHYL-4-(METHYLSULFONAMIDO)PHENYL)ETHYL)QUINOLINE-6-CARBOXAMIDE]: 94 nM; `Cc1cc([C@@H](C)NC(=O)c2ccc3nc(C(F)(F)F)nc(N4CCOCC4)c3c2)c(F)cc1NS(C)(=O)=O` [Example 112, 4-MORPHOLIN-4-YL-2-TRIFLUOROMETHYL-QUINAZOLINE-6-CARBOXYLIC ACID [(R)-1-(2-FLUORO-4-METHANESULFONYLAMINO-5-METHYL-PHENYL)-ETHYL]-AMIDE]: 33 nM; `Cc1cc([C@@H](C)NC(=O)c2ccc3nc(N4CCC(C)(C)CC4)ccc3c2)c(F)cc1NS(C)(=O)=O` [Example 113]: 149 nM.
